In US5508417A, “Broad-spectrum isothiazole antimicrobial agents” (Rohm and Haas Company, priority 1994, dated 1996):
Converted amounts (≈) assume the structure as drawn. Like-named read-outs stand apart in the source and are kept apart here.

Assays:
[1] = system: Escherichia coli; test: Minimum inhibitory concentration by two-fold serial dilution in Trypticase Soy Broth, Escherichia coli; format: cell-based
Experimental: (§1) A stock solution of the test compound was made in dimethyl sulfoxide at 13,000 ppm and then diluted 26-fold to give a starting concentration of 500 ppm. The antimicrobial activity was evaluated by a two-fold serial dilution of the starting concentration of 500 ppm, using Trypticase Soy Broth medium at pH 7.0. The minimum inhibitory concentration (MIC) of compounds 1-15 against the test organisms are shown in Table 2. |Escherichia coli Ecol The antimicrobial activity of these compounds was determined as described in Example 6 with only one change. The organism Saur was replaced by Rhodotorula rubra (Rrub). Rrub is a pink yeast.

[2] = system: Rhodotorula rubra; test: Minimum inhibitory concentration by two-fold serial dilution in Trypticase Soy Broth, Rhodotorula rubra; format: cell-based; settings: Table 3, comparative, as described in Example 6, read-out: Comparative Antimicrobial Activity (MIC), Rrub
Experimental: as §1, with “The” for “The minimum inhibitory concentration (MIC) of compounds 1-15 against the test organisms are shown in Table 2. |Escherichia coli Ecol The”

[3] = system: Aspergillus niger; test: Minimum inhibitory concentration by two-fold serial dilution in Trypticase Soy Broth, Aspergillus niger; format: cell-based
Experimental: as §1, with “|Aspergillus niger Anig” for “|Escherichia coli Ecol”

[4] = system: Pseudomonas aeruginosa; test: Minimum inhibitory concentration by two-fold serial dilution in Trypticase Soy Broth, Pseudomonas aeruginosa; format: cell-based
Experimental: as §1, with “|Pseudomonas aeruginosa | Psae” for “|Escherichia coli Ecol”

[5] = system: Staphlococcus aureus; test: Minimum inhibitory concentration by two-fold serial dilution in Trypticase Soy Broth, Staphlococcus aureus; format: cell-based; settings: Table 2, pH 7.0, read-out: Antimicrobial Activity (MIC), Saur
Experimental: A stock solution of the test compound was made in dimethyl sulfoxide at 13,000 ppm and then diluted 26-fold to give a starting concentration of 500 ppm. The antimicrobial activity was evaluated by a two-fold serial dilution of the starting concentration of 500 ppm, using Trypticase Soy Broth medium at pH 7.0. The minimum inhibitory concentration (MIC) of compounds 1-15 against the test organisms are shown in Table 2. |Staphlococcus aureus | Saur

[6] = in words; U.S. Pat. No. 3,957,808; cited from earlier work
[7] = Table 3, comparative, as described in Example 6, read-out: Comparative Antimicrobial Activity (MIC), Ecol
[8] = Table 3, comparative, as described in Example 6, read-out: Comparative Antimicrobial Activity (MIC), Anig
[9] = Table 3, comparative, as described in Example 6, read-out: Comparative Antimicrobial Activity (MIC), Psae
[10] = Table 2, Trypticase Soy Broth, pH 7.0, read-out: Antimicrobial Activity (MIC), Ecol
[11] = Table 2, Trypticase Soy Broth, pH 7.0, read-out: Antimicrobial Activity (MIC), Anig
[12] = Table 2, Trypticase Soy Broth, pH 7.0, read-out: Antimicrobial Activity (MIC), Psae

SMILES	MIC [1, 7]	MIC [2]	MIC [3, 8]	MIC [4, 9]	MIC [1, 10]	MIC [3, 11]	MIC [4, 12]	MIC [5]	microbicidal properties [6]
C=CCOc1cc(Cl)sn1 [B, reference compound]	250 µg/mL (≈ 1420 µM)	500 µg/mL (≈ 2850 µM)	250 µg/mL (≈ 1420 µM)	500 µg/mL (≈ 2850 µM)					
CC=C(COc1cc(Cl)sn1)C(=O)OCC [Compound 3, Ethyl 3-methyl-2-(5-chloroisothiazoloxy-3-yl-methyl)acrylate]					8 µg/mL (≈ 30.6 µM)	4 µg/mL (≈ 15.3 µM)	125 µg/mL (≈ 478 µM)	8 µg/mL (≈ 30.6 µM)	
CC(=O)C(=Cc1ccccc1)COc1cc(Cl)sn1 [Compound 5, α-(5-Chloroisothiazoloxy-3-yl-methyl)benzalacetone]					4 µg/mL (≈ 13.6 µM)	1 µg/mL (≈ 3.4 µM)	16 µg/mL (≈ 54.5 µM)	2 µg/mL (≈ 6.81 µM)	
C=C(COc1cc(Cl)sn1)[S+]([O-])c1ccccc1 (stereo not shown) [Compound 6, 3-(5-Chloroisothiazoloxy-3-yl-methyl)-2-phenylsulfinyl-1-propene]					125 µg/mL (≈ 417 µM)	32 µg/mL (≈ 107 µM)	125 µg/mL (≈ 417 µM)	125 µg/mL (≈ 417 µM)	
C=C(C(C)Oc1cc(Cl)sn1)S(=O)(=O)c1ccccc1 (stereo not shown) [Compound 7, 3-(5-Chloroisothiazoloxy-3-yl)-2-phenylsulfonyl-1-butene]					32 µg/mL (≈ 97 µM)	32 µg/mL (≈ 97 µM)	32 µg/mL (≈ 97 µM)	32 µg/mL (≈ 97 µM)	
C=C(COc1cc(Cl)sn1)C(=O)NCc1ccccc1 [Compound 9, N-Benzyl 2-(5-chloroisothiazoloxy-3-yl-methyl)acrylamide]					> 500 µg/mL	32 µg/mL (≈ 104 µM)	> 500 µg/mL	> 500 µg/mL	
C=C(COc1cc(Cl)sn1)C(=O)O [Compound 10, 2-(5-Chloroisothiazoloxy-3-yl-methyl)acrylic acid]					125 µg/mL (≈ 569 µM)	> 500 µg/mL	> 500 µg/mL	64 µg/mL (≈ 291 µM)	
C=C(COc1cc(Cl)sn1)C(=O)NC(C)C [Compound 12, N-Isopropyl 2-(5-chloroisothiazoloxy-3-yl-methyl)acrylamide]					500 µg/mL (≈ 1920 µM)	64 µg/mL (≈ 245 µM)	500 µg/mL (≈ 1920 µM)	> 500 µg/mL	
O=c1c(COc2cc(Cl)sn2)coc2ccccc12 [Compound 13, 3-(5-Chloroisothiazoloxy-3-yl-methyl)chromone]					8 µg/mL (≈ 27.2 µM)	16 µg/mL (≈ 54.5 µM)	32 µg/mL (≈ 109 µM)	8 µg/mL (≈ 27.2 µM)	
O=C1C=CC(=O)C(COc2ccsn2)=C1 [Compound 15, 2-(Isothiazoloxy-3-yl-methyl)-1,4-benzoquinone]					64 µg/mL (≈ 289 µM)	16 µg/mL (≈ 72.3 µM)	32 µg/mL (≈ 145 µM)	32 µg/mL (≈ 145 µM)	
C=CCOc1ccsn1 [Compound A, reference compound]	> 500 µg/mL	> 500 µg/mL	500 µg/mL (≈ 3540 µM)	> 500 µg/mL					useful microbicidal properties

Further lines, with some results ahead:

MIC [1, 7]	MIC [2]	MIC [3, 8]	MIC [4, 9]	MIC [1, 10]	MIC [3, 11]	MIC [4, 12]	MIC [5]	SMILES	microbicidal properties [6]
32 µg/mL (≈ 161 µM)	32 µg/mL (≈ 161 µM)	32 µg/mL (≈ 161 µM)	32 µg/mL (≈ 161 µM)	32 µg/mL (≈ 161 µM)	32 µg/mL (≈ 161 µM)	32 µg/mL (≈ 161 µM)		C=C(COc1ccsn1)C(=O)OC [Compound 1, Methyl 2-(isothiazoloxy-3-yl-methyl)acrylate]	
< 4 µg/mL	8 µg/mL (≈ 34.2 µM)	4 µg/mL (≈ 17.1 µM)	32 µg/mL (≈ 137 µM)	2 µg/mL (≈ 8.56 µM)	1 µg/mL (≈ 4.28 µM)	32 µg/mL (≈ 137 µM)	4 µg/mL (≈ 17.1 µM)	C=C(COc1cc(Cl)sn1)C(=O)OC [Compound 2, Methyl 2-(5-chloroisothiazoloxy-3-yl-methyl)acrylate]	
				> 500 µg/mL	500 µg/mL (≈ 1810 µM)	> 500 µg/mL	500 µg/mL (≈ 1810 µM)	N#CC(=Cc1ccccc1)COc1cc(Cl)sn1 [Compound 4, 2-(5-Chloroisothiazoloxy-3-yl-methyl)-3-phenylacrylonitrile]	
				32 µg/mL (≈ 97 µM)	64 µg/mL (≈ 194 µM)	64 µg/mL (≈ 194 µM)	32 µg/mL (≈ 97 µM)	CC=C(COc1cc(Cl)sn1)S(=O)(=O)c1ccccc1 [Compound 8, 1-(5-Chloroisothiazoloxy-3-yl-methyl)-2-phenylsulfonyl-2-butene]	
				> 500 µg/mL	500 µg/mL (≈ 1670 µM)	> 500 µg/mL	> 500 µg/mL	CC(=O)C(=Cc1ccccc1)COc1nsc2c1CCC2 [Compound 11, α-(4,5-Trimethyleneisothiazoloxy-3-yl-methyl)benzalacetone]	
				16 µg/mL (≈ 62.6 µM)	8 µg/mL (≈ 31.3 µM)	64 µg/mL (≈ 250 µM)	64 µg/mL (≈ 250 µM)	O=C1C=CC(=O)C(COc2cc(Cl)sn2)=C1 [Compound 14, 2-(5-Chloroisothiazoloxy-3-yl-methyl)-1,4-benzoquinone]	
